Values after ≈ are worked out from the molar mass of the structure shown. Read-outs that look alike come from different tables or passages of the source.
What was measured:
[1] = test system: Moraxella species (including Moraxella catarrhalis); assay: MIC, 25 ocular isolates, broth microdilution (Example 8); format: cell-based
Procedure: (§1) Mueller-Hinton Broth supplemented with 2% lysed horse blood in tubes was inoculated with 25 ocular isolates of Streptococcus pneumoniae, Streptococcus viridans group, and Moraxella species (including Moraxella catarrhalis) plus two controls (Staphylococcus aureus and E. coli) and incubated at 37° C. overnight. Additionally, Mueller-Hinton Broth in tubes was inoculated with two controls (Staphylococcus aureus and E. coli) and incubated at 37° C. overnight on a shaker set at 250 rpm.
(§2) On the day of testing, a 640 μg/ml (1280 μg/ml for Serratia marcescens and Pseudomonas aeruginosa) concentration was prepared from a 1% stock solution in 0.01% acetic acid, 0.2% BSA in polypropylene tubes.
(§3) Serial doubling dilutions in 0.01% acetic acid, 0.2% BSA in 96 well polypropylene plates, which are used as reservoirs for the inoculation of the test plates, were carried out to obtain serial dilutions of test agents at 10 times the required test concentrations: 640, 320, 160, 80, 40, 20, 10, 5, 2.5, 1.25, and 0.625 μg/ml (1280, 640, 320, 160, 80, 40, 20, 10, 5, 2.5, and 1.25 μg/ml for Serratia marcescens and Pseudomonas aeruginosa).
(§4) Ten μl of diluted 10×test agents was added to each well of one row of the 96 well polypropylene plates from column 2 to column 12 (column 1 is a control for bacteria alone, with no peptide). Test agent concentrations in columns 2-12 were as follows: 64, 32, 16, 8, 4, 2, 1, 0.5, 0.25, 0.125, and 0.0625 μg/ml (128, 64, 32, 16, 8, 4, 2, 1, 0.5, 0.25, and 0.125 μg/ml for Serratia marcescens and Pseudomonas aeruginosa). The same peptide was in each of the 8 rows. One plate contained dilutions of one test agent and 8 bacterial isolates.
(§5) On the day of testing, the overnight bacterial broth cultures of Streptococcus pneumoniae, Streptococcus viridans and Moraxella species (including Moraxella catarrhalis) plus two controls (Staphylococcus aureus and E. coli) were diluted in 5 ml of trypticase soy broth to yield turbidity equal to a 0.5 McFarland standard. The final inoculum for MIC testing for Streptococcus pneumoniae, Streptococcus viridans and Moraxella species (including Moraxella catarrhalis) was achieved by placing 0.1 ml of the turbidity adjusted sample to 5 ml of Mueller-Hinton broth containing 2% lysed horse red blood cells.
(§6) Ninety μl of the bacterial suspensions was dispensed in each well from column 1 to column 12. Each bacterial isolate was placed in one row of a 96 well polypropylene plate containing the test agents. The plates were placed on shaker at 15 minutes at room temperature, and then incubated at 37° C. overnight. MICs were determined visually as the lowest concentration of drug that inhibits visible bacterial growth.

[2] = test system: Streptococcus pneumoniae; assay: as above; format: cell-based; conditions: for MIC: Streptococcus pneumoniae
Procedure: as §1, §2, §3, §4, §5, §6

[3] = n=25 isolates, >64 replaced with 128

SMILES: N=C(N)NCCCCC(=O)Nc1cc(C(F)(F)F)cc(NC(=O)c2cc(C(=O)Nc3cc(C(F)(F)F)cc(NC(=O)CCCCNC(=N)N)c3O[C@@H]3CCNC3)ncn2)c1O[C@@H]1CCNC1 [Oligomer 4]
- MIC ([1]; Moraxella, 25 ocular isolates, Mueller-Hinton broth with 2% lysed horse red blood cells, read-out: Median MIC): ≤ 4 µg/mL
- MIC ([1]; Moraxella, isolate 1 K1614 - MS, read-out: MIC): 16 µg/mL (≈ 17.1 µM)
- MIC ([1]; Moraxella, isolate 2 K1661 - MS, read-out: MIC): 32 µg/mL (≈ 34.2 µM)
- MIC ([1]; Moraxella, isolate 3 K1643 - MS, read-out: MIC): 64 µg/mL (≈ 68.3 µM)
- MIC ([1]; Moraxella, isolate 4 K1640 - MS, read-out: MIC): 8 µg/mL (≈ 8.54 µM)
- MIC ([1]; Moraxella, isolate 5 B1431 - MS, read-out: MIC): 32 µg/mL (≈ 34.2 µM)
- MIC ([1]; Moraxella, isolate 6 B1429 - MS, read-out: MIC): 1 µg/mL (≈ 1.07 µM)
- MIC ([1]; Moraxella, isolate 7 B1418 - MS, read-out: MIC): 32 µg/mL (≈ 34.2 µM)
- MIC ([1]; Moraxella, isolate 8 K1784 - MS, read-out: MIC): 64 µg/mL (≈ 68.3 µM)
- MIC ([1]; Moraxella, isolate 9 K1773 - MS, read-out: MIC): 64 µg/mL (≈ 68.3 µM)
- MIC ([1]; Moraxella, isolate 10 K1369 - MS, read-out: MIC): 2 µg/mL (≈ 2.13 µM)
- MIC ([1]; Moraxella, isolate 11 B1275 - MS, read-out: MIC): 2 µg/mL (≈ 2.13 µM)
- MIC ([1]; Moraxella, isolate 12 B1221 - MS, read-out: MIC): 2 µg/mL (≈ 2.13 µM)
- MIC ([1]; Moraxella, isolate 13 B1172 - MS, read-out: MIC): > 64 µg/mL
- MIC ([1]; Moraxella, isolate 14 E542 - MS, read-out: MIC): 2 µg/mL (≈ 2.13 µM)
- MIC ([1]; Moraxella, isolate 15 K678 - MS, read-out: MIC): 2 µg/mL (≈ 2.13 µM)
- MIC ([1]; Moraxella, isolate 16 K660 - MS, read-out: MIC): 2 µg/mL (≈ 2.13 µM)
- MIC ([1]; Moraxella, isolate 17 K599 - MC, read-out: MIC): 0.5 µg/mL (≈ 0.534 µM)
- MIC ([1]; Moraxella, isolate 18 K1650 - MC, read-out: MIC): 64 µg/mL (≈ 68.3 µM)
- MIC ([1]; Moraxella, isolate 19 K1373 - MC, read-out: MIC): 1 µg/mL (≈ 1.07 µM)
- MIC ([1]; Moraxella, isolate 20 K1553 - MC, read-out: MIC): 4 µg/mL (≈ 4.27 µM)
- MIC ([1]; Moraxella, isolate 21 K1453 - MC, read-out: MIC): 4 µg/mL (≈ 4.27 µM)
- MIC ([1]; Moraxella, isolate 22 K1227 - MC, read-out: MIC): 2 µg/mL (≈ 2.13 µM)
- MIC ([1]; Moraxella, isolate 23 B1102 - MC, read-out: MIC): 1 µg/mL (≈ 1.07 µM)
- MIC ([1]; Moraxella, isolate 24 K1819 - MC, read-out: MIC): 4 µg/mL (≈ 4.27 µM)
- MIC ([1]; Moraxella, isolate 25 K1855 - MC, read-out: MIC): 2 µg/mL (≈ 2.13 µM)
- MIC50 ([1]; Moraxella, n=25 isolates, >64 replaced with 128, read-out: MIC50): 4 µg/mL (≈ 4.27 µM)
- MIC90 ([1]; Moraxella, n=25 isolates, >64 replaced with 128, read-out: MIC90): 64 µg/mL (≈ 68.3 µM)
- MIC ([1]; Moraxella, n=25 isolates, >64 replaced with 128, read-out: Median MIC): 4 µg/mL (≈ 4.27 µM)
- MIC50 [1, 3]: 4 µg/mL (≈ 4.27 µM)
- MIC90 [1, 3]: 64 µg/mL (≈ 68.3 µM)
- Range of MICs [1, 3]: 0.5 to 128 µg/mL
- MIC50 ([2]; 25 isolates, Row 13): 1 µg/mL (≈ 1.07 µM)
- MIC90 ([2]; 25 isolates, Row 22): 2 µg/mL (≈ 2.13 µM)
- Range of MICs ([2]; 25 isolates, Summary of Results, >64 was Replaced with 128): 0.5 to 128 µg/mL
- MIC ([2]; 25 ocular isolates, Mueller-Hinton broth with 2% lysed horse red blood cells, read-out: Median MIC): ≤ 4 µg/mL
- MIC ([2]; isolate 1—B1386, read-out: MIC): > 64 µg/mL
- MIC ([2]; isolate 2—B1380, read-out: MIC): 1 µg/mL (≈ 1.07 µM)
- MIC ([2]; isolate 3—B1378, read-out: MIC): 1 µg/mL (≈ 1.07 µM)
- MIC ([2]; isolate 4—B1377, read-out: MIC): 2 µg/mL (≈ 2.13 µM)
- MIC ([2]; isolate 5—B1373, read-out: MIC): 1 µg/mL (≈ 1.07 µM)
- MIC ([2]; isolate 6—B1367, read-out: MIC): 1 µg/mL (≈ 1.07 µM)
- MIC ([2]; isolate 7—B1355, read-out: MIC): 2 µg/mL (≈ 2.13 µM)
- MIC ([2]; isolate 8—B1353, read-out: MIC): 1 µg/mL (≈ 1.07 µM)
- MIC ([2]; isolate 9—B1351, read-out: MIC): 1 µg/mL (≈ 1.07 µM)
- MIC ([2]; isolate 10—B1339, read-out: MIC): 1 µg/mL (≈ 1.07 µM)
- MIC ([2]; isolate 11—B1337, read-out: MIC): 0.5 µg/mL (≈ 0.534 µM)
- MIC ([2]; isolate 12—B1335, read-out: MIC): 2 µg/mL (≈ 2.13 µM)
- MIC ([2]; isolate 13—B1334, read-out: MIC): 1 µg/mL (≈ 1.07 µM)
- MIC ([2]; isolate 14—B1333, read-out: MIC): 1 µg/mL (≈ 1.07 µM)
- MIC ([2]; isolate 15—B1255, read-out: MIC): 0.5 µg/mL (≈ 0.534 µM)
- MIC ([2]; isolate 16—B1288, read-out: MIC): 1 µg/mL (≈ 1.07 µM)

— patent US20130065818A1, “Arylamide Compounds And Compositions And Uses Thereof” (POLYMEDIX, priority 2006, published 2013)
